Laboratory results from patent US9862721B2, “Tetrahydrocarboline derivative” (ONO PHARMACEUTICAL CO., LTD., priority 2011, dated 2018).

Each molecule was assayed against human ENPP2 (Homo sapiens (Human), UniProt Q13822) (assay: Measurement of human ENPP2 inhibitory activity). Conditions: human ENPP2, 16:0-LPC substrate, read-out: ENPP2 inhibitory activity rate (%).
Format: biochemical
Protocol: 10 μL of a test compound solution (10% dimethyl sulfoxide) at each concentration and 40 μL of a 5 μg/mL human ENPP2 solution (buffer A: 100 mmol/L Tris-HCl (pH 9.0), 500 mmol/L NaCl, 5 mmol/L MgCl2, 0.05% Triton X-100) were mixed, 50 μL of a 2 mmol/L 16:0-lysophosphatidylcholine (LPC) solution (buffer A) was further added to react at 37° C. for 24 hours. Subsequently, to 10 μL of the reaction solution was added 90 μL of a measurement buffer (0.5 mmol/L aminoantipyrine, 0.3 mmol/L N-ethyl-N-(2-hydroxy-3-sulfopropyl)-3-methylaniline, 1 U/mL peroxidase, 3 U/mL choline oxidase, 100 mmol/L Tris-HCl (pH 8.5), 5 mmol/L CaCl2) to react at 37° C. for 20 minutes, and spectrophotometric determination was performed at 555 nm.
Using a standard curve, a choline production amount (enzyme activity) in each test compound was calculated, and the inhibitory activity rate of each test compound was calculated, wherein the enzyme activity in a positive control to which a test compound is not added, was a 0% inhibition rate, and the enzyme activity in a negative control to which a test compound and human ENPP2 are not added, were 100% inhibition. Further, concerning the present compounds shown in Table 3, an IC50 value was calculated from inhibitory activity rate at each concentration.

inhibition at 1 µM | Compound
99.5% | CC1(C(=O)O)CCN(CC(=O)N2CCc3c(n(Cc4ccc(C(F)(F)F)s4)c4ncccc34)C2)CC1 [Example 7(39), 4-methyl-1-[2-oxo-2-(9-{[5-(trifluoromethyl)-2-thienyl]methyl}-5,6,8,9-tetrahydro-7H-pyrido[4′,3′:4,5]pyrrolo[2,3-b]pyridin-7-yl)ethyl]-4-piperidinecarboxylic acid]
97.4% | C[C@]1(C(=O)O)CC[C@H](CC(=O)N2CCc3c(n(Cc4cnc(C(F)(F)F)s4)c4ncccc34)C2)CC1 [Example 10(5), trans-1-methyl-4-[2-oxo-2-(9-{[2-(trifluoromethyl)-1,3-thiazol-5-yl]methyl}-5,6,8,9-tetrahydro-7H-pyrido[4′,3′:4,5]pyrrolo[2,3-b]pyridin-7-yl)ethyl]cyclohexanecarboxylic acid]

The next lines start with the molecule.

Compound | inhibition at 1 µM
O=C(C[C@H]1CC[C@H](C(=O)O)CC1)N1CCc2c(n(Cc3csc(C(F)(F)F)c3)c3ncccc23)C1 [Example 6(13), trans-4-[2-oxo-2-(9-{[5-(trifluoromethyl)-3-thienyl]methyl}-5,6,8,9-tetrahydro-7H-pyrido[4′,3′:4,5]pyrrolo[2,3-b]pyridin-7-yl)ethyl]cyclohexanecarboxylic acid] | 99.2%
O=C(C[C@H]1CC[C@H](C(=O)O)CC1)N1CCc2c(n(Cc3ccc(C(F)(F)F)s3)c3ncccc23)C1 [Example 6(16), trans-4-[2-oxo-2-(9-{[5-(trifluoromethyl)-2-thienyl]methyl}-5,6,8,9-tetrahydro-7H-pyrido[4′,3′:4,5]pyrrolo[2,3-b]pyridin-7-yl)ethyl]cyclohexanecarboxylic acid] | 99%
CC1(C)[C@@H](CC(=O)N2CCc3c(n(Cc4cnc(C(F)(F)F)s4)c4ccccc34)C2)CC[C@@]1(C)C(=O)O [Example 6(49), (1R,3R)-1,2,2-trimethyl-3-[2-oxo-2-(9-{[2-(trifluoromethyl)-1,3-thiazol-5-yl]methyl}-1,3,4,9-tetrahydro-2H-beta-carbolin-2-yl)ethyl]cyclopentanecarboxylic acid] | 99.1%
O=C(CC12CCC(C(=O)O)(CC1)C2)N1CCc2c(n(Cc3ccc(C(F)(F)F)cc3)c3ncccc23)C1 [Example 6(68), 4-(2-oxo-2-{9-[4-(trifluoromethyl)benzyl]-5,6,8,9-tetrahydro-7H-pyrido[4′,3′:4,5]pyrrolo[2,3-b]pyridin-7-yl}ethyl)bicyclo[2.2.1]heptane-1-carboxylic acid] | 99.2%
CCc1cccc(Cn2c3c(c4cccnc42)CCN(C(=O)CC24CCC(C(=O)O)(CC2)C4)C3)c1 [Example 6(72), 4-{2-[9-(3-ethylbenzyl)-5,6,8,9-tetrahydro-7H-pyrido[4′,3′:4,5]pyrrolo[2,3-b]pyridin-7-yl]-2-oxoethyl}bicyclo[2.2.1]heptane-1-carboxylic acid] | 99.3%

Each molecule was assayed on Crl:CD (Sprague-Dawley) male rat (assay: Measurement of blood pressure and heart rate in rat under wakefulness). Conditions: conscious rat, forced oral administration, 100, 300 mg/kg, up to 180 minutes.
Format: in vivo
Protocol: A Cr1:CD (Sparague-Dawley) male rat (Charles River Laboratories Japan, Inc., 8 weeks old) was anesthetized by inhalation of isoflurane. A catheter (INTRAMEDIC POLYETHYLENE Tubing PE50, CLAY ADAMS) was inserted and indwelled in a femoral artery and another end was exposed from dorsal skin. The rat was placed in a rearing cage for blood pressure measurement. After elapse of 2 hours or more from the insertion of the catheter, each of the compound of Reference Example 2 and the compound of Example 6(72) (dose: 100, 300 mg/kg) was forcedly orally administered, and blood pressure was measured under no anesthesia and no restraint. The blood pressure was measured by connecting the catheter inserted in the femoral artery and a blood pressure transducer (DX-360, Nihon Kohden Corporation) and passing through an amplifier for blood pressure measurement (Coupler.Amplifier PP-101H.AP-101H, Nihon Kohden Corporation). Blood pressure signals were captured into a data acquisition analysis system (HEM 3.5, NOTOCORD SYSTEM S.A.) through a polygraph system (PEG-1000, Nihon Kohden Corporation) to measure blood pressure (systolic pressure, diastolic pressure, mean blood pressure) and heart rate (measured from blood pressure pulse wave). […] The data were accumulated as measured values at respective time points and % variation values in which each value before administration was taken as 100.

Compound | influence on a circulatory organ (blood pressure, heart rate)
CCc1cccc(Cn2c3c(c4cccnc42)CCN(C(=O)CC24CCC(C(=O)O)(CC2)C4)C3)c1 [Example 6(72), 4-{2-[9-(3-ethylbenzyl)-5,6,8,9-tetrahydro-7H-pyrido[4′,3′:4,5]pyrrolo[2,3-b]pyridin-7-yl]-2-oxoethyl}bicyclo[2.2.1]heptane-1-carboxylic acid] | no influence
O=C(C[C@H]1CC[C@H](C(=O)O)CC1)N1CCc2c(n(Cc3ccc(F)cc3F)c3ncccc23)C1 [Reference Example 2, trans-4-{2-[9-(2,4-difluorobenzyl)-5,6,8,9-tetrahydro-7H-pyrido[4′,3′:4,5]pyrrolo[2,3-b]pyridin-7-yl}-2-oxoethyl}cyclohexanecarboxylic acid, reference compound] | An influence of the compound of Reference Example 2 on a circulatory organ was observed
